In test [1] the test system is human lung cancer strain NCI-H441. Put plainly: NCI-H441 cell proliferation inhibitory activity (CellTiter-Glo, 4 days). As to conditions: NCI-H441 cells, 4 days, read-out: NCl-H441 IC50. The format is cell-based. A digest of the protocol: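 Step one: dispense the test compound in serial DMSO dilutions. Step three: add the reagent and measure […].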
Test [2] addresses GDP-bound KRAS wild-type protein (Homo sapiens, UniProt P01116). Nature of the test: Binding to KRAS by surface plasmon resonance (SPR), dissociation constant KD. Particulars: Single Cycle Kinetics. A digest of the protocol:
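Single-cycle kinetics on GDP-loaded biotin-Avi RAS captured to ~100–300 RU; 75 s ascending injections, 100 µL/min, 30°C. HBS pH 7.4 + 10 mM MgCl2/10 µM GDP/4% DMSO. 1:1 fit, KD.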

For the next test, the target named is HRAS wild-type protein (Homo sapiens, UniProt P01112). Nature of the test: Binding to HRAS by surface plasmon resonance (SPR), KD and KD ratio to KRAS. Particulars: ratio of KD for HRAS wild-type protein to KD for KRAS. The procedure, abridged:
(§1)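 Running buffer contained 10 µM GDP and 10 mM MgCl2 to keep RAS in the GDP state, with 4% DMSO at pH 7.4. Compounds were flowed at 100 µL/min in 75 s steps of rising concentration over captured biotin-Avi RAS at 30°C. Sensorgrams were fitted 1:1 for KD.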

Test [3] has as its target GDP-bound NRAS wild-type protein (Homo sapiens, UniProt P01111). Nature of the test: Binding to NRAS by surface plasmon resonance (SPR), KD and KD ratio to KRAS. As to conditions: ratio of KD for GDP-bound NRAS wild-type protein to KD for KRAS. A digest of the protocol:
as §1

HRAS wild-type protein, sequence (P01112 whole entry): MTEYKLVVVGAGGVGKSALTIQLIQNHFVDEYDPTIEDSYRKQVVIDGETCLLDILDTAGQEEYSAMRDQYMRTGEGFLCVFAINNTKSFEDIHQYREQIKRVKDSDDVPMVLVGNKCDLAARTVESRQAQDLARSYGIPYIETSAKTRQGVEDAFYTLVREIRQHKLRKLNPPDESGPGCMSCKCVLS
GDP-bound KRAS wild-type protein, sequence (P01116 1-188 isoform P01116-2): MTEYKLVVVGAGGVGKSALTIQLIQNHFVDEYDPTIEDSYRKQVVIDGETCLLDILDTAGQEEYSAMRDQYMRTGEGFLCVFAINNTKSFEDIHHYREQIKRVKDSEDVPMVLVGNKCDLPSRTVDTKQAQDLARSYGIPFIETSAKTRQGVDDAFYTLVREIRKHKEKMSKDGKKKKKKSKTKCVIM
GDP-bound NRAS wild-type protein, sequence (P01111 whole entry): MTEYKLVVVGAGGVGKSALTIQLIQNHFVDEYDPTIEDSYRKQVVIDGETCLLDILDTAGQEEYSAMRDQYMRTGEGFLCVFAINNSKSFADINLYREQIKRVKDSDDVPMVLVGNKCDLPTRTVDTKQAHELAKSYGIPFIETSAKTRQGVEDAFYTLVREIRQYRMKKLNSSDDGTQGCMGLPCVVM

In the case of `CCCO[C@@H]1C[C@H]2C(=O)NC3(CC(C)(C)C3)C(=O)N(C)[C@@H](C3CCCC3)C(=O)N(C)[C@H](C(=O)N(C)CC)CC(=O)N[C@@H](COCC)C(=O)N[C@@H]([C@@H](C)CC)C(=O)N(C3CC3)CC(=O)N(C)[C@H]3C/C=C\CCN(C3=O)[C@@H](Cc3ccc(C)cc3)C(=O)N(C)CC(=O)N[C@@H](CCc3cc(F)c(C(F)(F)F)c(F)c3)C(=O)N2C1` [PP3421], in test [1], the IC50 stood at 67 nM. The molecule further gave a Kd in test [2] of 1.9 nM. Besides, the “HRAS /KRAS” value at HRAS wild-type protein was “A (a compound having 10 or more and less than 20 is denoted as A)”. In addition, in test [3], the “NRAS /KRAS” value was “A (a compound having 10 or more and less than 20 is denoted as A)”.

Take `CCC[C@H]1C(=O)N[C@@H]([C@@H](C)CC)C(=O)N(C)CC(=O)N(C)[C@H]2C/C=C\CCN(C2=O)[C@@H](Cc2ccc(C)cc2)C(=O)N(C)CC(=O)N[C@@H](CCc2ccc(C(F)(F)F)c(OC)c2)C(=O)N2CC3(CC3)C[C@H]2C(=O)NC2(CCC2)C(=O)N(C)[C@@H](C(CC)CC)C(=O)N(C)[C@H](C(=O)N(C)C)CC(=O)N1C` [PP3422]: in test [1], the IC50 amounted to 8.4 nM. In addition, the dissociation constant Kd in test [2] amounted to 0.39 nM. Besides, on HRAS wild-type protein, the “HRAS /KRAS” value was “A (a compound having 10 or more and less than 20 is denoted as A)”. Moreover, the “NRAS /KRAS” value in test [3] is “AA (a compound having 20 or more is denoted as AA)”.

For `CCCO[C@@H]1C[C@H]2C(=O)NC3(CC(C)(C)C3)C(=O)N(C)[C@@H](C3CCCC3)C(=O)N(C)[C@H](C(=O)N(C)CC)CC(=O)N[C@@H](COCC)C(=O)N[C@@H]([C@@H](C)CC)C(=O)N3CCC[C@H]3C(=O)N(C)[C@H]3C/C=C\CCN(C3=O)[C@@H](Cc3ccc(C)cc3)C(=O)N(C)CC(=O)N[C@@H](CCc3cc(F)c(C(F)(F)F)c(F)c3)C(=O)N2C1` [PP3423], the IC50 in test [1] is 81.2 nM. In test [2], this molecule had a Kd of 1.8 nM. Moreover, the “HRAS /KRAS” value on HRAS wild-type protein was “A (a compound having 10 or more and less than 20 is denoted as A)”. Besides, the “NRAS /KRAS” value in test [3] is “A (a compound having 10 or more and less than 20 is denoted as A)”.

Turning to `CCC[C@H]1C(=O)N[C@@H]([C@@H](C)CC)C(=O)N(C)CC(=O)N(C)[C@H]2C/C=C\CCN(C2=O)[C@@H](Cc2ccc(C)cc2)C(=O)N(C)CC(=O)N[C@@H](CCc2ccc(C(F)(F)F)c(Cl)c2)C(=O)N2CC3(CC3)C[C@H]2C(=O)NC2(CCC2)C(=O)N(C)[C@@H](C(CC)CC)C(=O)N(C)[C@H](C(=O)N(C)C)CC(=O)N1C` [PP3424], the 50% inhibitory concentration (IC50) in test [1] amounted to 27.2 nM. Moreover, the Kd in test [2] amounted to 0.48 nM. Besides, on HRAS wild-type protein, the “HRAS /KRAS” value was “A (a compound having 10 or more and less than 20 is denoted as A)”. Also, in test [3], the “NRAS /KRAS” value is reported as “AA (a compound having 20 or more is denoted as AA)”.

As for `CCC[C@H]1C(=O)N[C@@H]([C@@H](C)CC)C(=O)N(C)CC(=O)N(C)[C@H]2C/C=C\CCN(C2=O)[C@@H](Cc2ccc(C)cc2)C(=O)N(C)CC(=O)N[C@@H](CCc2ccc(C(F)(F)F)c(Cl)c2)C(=O)N2CC3(CC3)C[C@H]2C(=O)NC2(CCC2)C(=O)N(C)[C@@H]([C@@H](C)CC)C(=O)N(C)[C@H](C(=O)N(C)C)CC(=O)N1C` [PP3426], in test [1], the IC50 is 17.2 nM. Also, the Kd in test [2] turned out to be 0.36 nM. In addition, the “HRAS /KRAS” value on HRAS wild-type protein is “A (a compound having 10 or more and less than 20 is denoted as A)”. The “NRAS /KRAS” value in test [3] was “A (a compound having 10 or more and less than 20 is denoted as A)”.

For the molecule `CCC[C@H]1C(=O)N[C@@H](C2CCCC2)C(=O)N(C)CC(=O)N(C)[C@H]2C/C=C\CCN(C2=O)[C@@H](Cc2ccc(C)cc2)C(=O)N(C)CC(=O)N[C@@H](CCc2cc(F)c(C(F)(F)F)c(F)c2)C(=O)N2CC3(CC3)C[C@H]2C(=O)NC2(CCC2)C(=O)N(C)[C@@H](C(CC)CC)C(=O)N(C)[C@H](C(=O)N(C)C)CC(=O)N1C` [PP3428], the IC50 in test [1] amounted to 18.7 nM. In test [2], this molecule showed an equilibrium dissociation constant (Kd) of 0.77 nM. Also, the “HRAS /KRAS” value on HRAS wild-type protein was “A (a compound having 10 or more and less than 20 is denoted as A)”. In test [3], the “NRAS /KRAS” value is “A (a compound having 10 or more and less than 20 is denoted as A)”.

As to `CCCO[C@@H]1C[C@H]2C(=O)NC3(CC(C)(C)C3)C(=O)N(C)[C@@H](C3CCCC3)C(=O)N(C)[C@H](C(=O)N(C)CC)CC(=O)N[C@@H](COCC)C(=O)N[C@@H]([C@@H](C)CC)C(=O)N(C3CC3)CC(=O)N(C)[C@H]3C/C=C\CCN(C3=O)[C@@H](Cc3ccc(C)cc3)C(=O)N(C)CC(=O)N[C@@H](CCc3ccc(C(F)(F)F)c(Cl)c3)C(=O)N2C1` [PP3429], the IC50 in test [1] came to 78.6 nM. In test [2], this molecule registered a Kd of 2.5 nM. The “HRAS /KRAS” value at HRAS wild-type protein is “A (a compound having 10 or more and less than 20 is denoted as A)”. In addition, the “NRAS /KRAS” value in test [3] was “A (a compound having 10 or more and less than 20 is denoted as A)”.

`CCC[C@H]1C(=O)N[C@@H](C2CCCC2)C(=O)N(C)CC(=O)N(C)[C@H]2C/C=C\CCN(C2=O)[C@@H](Cc2ccc(C)cc2)C(=O)N(C)CC(=O)N[C@@H](CCc2ccc(C(F)(F)F)c(OC)c2)C(=O)N2CC3(CC3)C[C@H]2C(=O)NC2(CCC2)C(=O)N(C)[C@@H](C(CC)CC)C(=O)N(C)[C@H](C(=O)N(C)C)CC(=O)N1C` [PP3430]: the IC50 in test [1] is 29.8 nM. In test [2], this molecule gave a Kd of 0.7 nM. Further, the “HRAS /KRAS” value at HRAS wild-type protein was “A (a compound having 10 or more and less than 20 is denoted as A)”. In test [3], the “NRAS /KRAS” value is “AA (a compound having 20 or more is denoted as AA)”.

For the molecule `CCCO[C@@H]1C[C@H]2C(=O)NC3(CC(C)(C)C3)C(=O)N(C)[C@@H](C3CCCC3)C(=O)N(C)[C@H](C(=O)N(C)CC)CC(=O)N[C@@H](COCC)C(=O)N[C@@H]([C@@H](C)CC)C(=O)N3CCC[C@H]3C(=O)N(C)[C@H]3C/C=C\CCN(C3=O)[C@@H](Cc3ccc(C)cc3)C(=O)N(C)CC(=O)N[C@@H](CCc3ccc(C(F)(F)F)c(Cl)c3)C(=O)N2C1` [PP3431], the IC50 in test [1] amounted to 79.5 nM. The molecule also returned a Kd in test [2] of 3 nM. At HRAS wild-type protein, the “HRAS /KRAS” value is “A (a compound having 10 or more and less than 20 is denoted as A)”. Besides, the “NRAS /KRAS” value in test [3] was “A (a compound having 10 or more and less than 20 is denoted as A)”.

For `CCC[C@H]1C(=O)N[C@@H](C2CCCC2)C(=O)N(C)CC(=O)N(C)[C@H]2C/C=C\CCN(C2=O)[C@@H](Cc2ccc(C)cc2)C(=O)N(C)CC(=O)N[C@@H](CCc2ccc(C(F)(F)F)c(Cl)c2)C(=O)N2CC3(CC3)C[C@H]2C(=O)NC2(CCC2)C(=O)N(C)[C@@H](C(CC)CC)C(=O)N(C)[C@H](C(=O)N(C)C)CC(=O)N1C` [PP3432], the half-inhibitory concentration (IC50) in test [1] amounted to 57.7 nM. In test [2], this molecule gave a Kd of 0.71 nM. At HRAS wild-type protein, the “HRAS /KRAS” value was “A (a compound having 10 or more and less than 20 is denoted as A)”. Moreover, in test [3], the “NRAS /KRAS” value was “AA (a compound having 20 or more is denoted as AA)”.

Turning to `CCC[C@H]1C(=O)N[C@@H](C2CCCC2)C(=O)N(C)CC(=O)N(C)[C@H]2C/C=C\CCN(C2=O)[C@@H](Cc2ccc(C)cc2)C(=O)N(C)CC(=O)N[C@@H](CCc2ccc(C(F)(F)F)c(Cl)c2)C(=O)N2CC3(CC3)C[C@H]2C(=O)NC2(CCC2)C(=O)N(C)[C@@H]([C@@H](C)CC)C(=O)N(C)[C@H](C(=O)N(C)C)CC(=O)N1C` [PP3434], the IC50 in test [1] turned out to be 26.8 nM. For the same molecule, the Kd in test [2] turned out to be 0.76 nM. Further, the “HRAS /KRAS” value on HRAS wild-type protein was “A (a compound having 10 or more and less than 20 is denoted as A)”. In test [3], the “NRAS /KRAS” value was “A (a compound having 10 or more and less than 20 is denoted as A)”.

As to `CCC[C@H]1C(=O)N[C@@H]([C@@H](C)CC)C(=O)N(C)CC(=O)N(C)[C@H]2C/C=C\CCN(C2=O)[C@@H](Cc2ccc(C(F)(F)F)cc2)C(=O)N(C)CC(=O)N[C@@H](CCc2cc(F)c(C(F)(F)F)c(F)c2)C(=O)N2CC3(CC3)C[C@H]2C(=O)NC2(CCC2)C(=O)N(C)[C@@H](C2CCCC2)C(=O)N(C)[C@H](C(=O)N(C)C)CC(=O)N1C` [PP3436], the IC50 in test [1] came out at 4.6 nM. The affinity in test [2], expressed as Kd, was 0.059 nM. In addition, the “HRAS /KRAS” value on HRAS wild-type protein is “A (a compound having 10 or more and less than 20 is denoted as A)”. In test [3], the “NRAS /KRAS” value was “A (a compound having 10 or more and less than 20 is denoted as A)”.

For the molecule `CCCO[C@@H]1C[C@H]2C(=O)NC3(CC(C)(C)C3)C(=O)N(C)[C@@H](C3CCCC3)C(=O)N(C)[C@H](C(=O)N(C)CC)CC(=O)N[C@@H](COCC)C(=O)N[C@@H]([C@@H](C)CC)C(=O)N(C3CC3)CC(=O)N(C)[C@H]3C/C=C\CCN(C3=O)[C@@H](Cc3ccc(C)cc3)C(=O)N(C)CC(=O)N[C@@H](CCc3ccc(C(F)(F)F)c(OC)c3)C(=O)N2C1` [PP3437], in test [1], the concentration for half-maximal inhibition (IC50) came to 51.6 nM. The Kd in test [2] was 1.3 nM. On HRAS wild-type protein, the “HRAS /KRAS” value is “A (a compound having 10 or more and less than 20 is denoted as A)”. Further, the “NRAS /KRAS” value in test [3] is on record as “AA (a compound having 20 or more is denoted as AA)”.

Take `CCC[C@H]1C(=O)N[C@@H]([C@@H](C)CC)C(=O)N(C)CC(=O)N(C)[C@H]2C/C=C\CCN(C2=O)[C@@H](Cc2ccc(C(F)(F)F)cc2)C(=O)N(C)CC(=O)N[C@@H](CCc2ccc(C(F)(F)F)c(OC)c2)C(=O)N2CC3(CC3)C[C@H]2C(=O)NC2(CCC2)C(=O)N(C)[C@@H](C2CCCC2)C(=O)N(C)[C@H](C(=O)N(C)C)CC(=O)N1C` [PP3438]: the IC50 in test [1] was determined as 8.9 nM. Further, in test [2], the Kd was determined as 0.062 nM. The “HRAS /KRAS” value at HRAS wild-type protein was “A (a compound having 10 or more and less than 20 is denoted as A)”. The “NRAS /KRAS” value in test [3] is “A (a compound having 10 or more and less than 20 is denoted as A)”.

The values are drawn from patent EP4603105A1, “PHARMACEUTICAL COMPOSITION CONTAINING CYCLIC COMPOUND HAVING SELECTIVE KRAS INHIBITORY EFFECT AGAINST HRAS AND NRAS” (CHUGAI SEIYAKU KABUSHIKI KAISHA, priority 2022, dated 2024).
